The test system of series [1] is patients receiving CT/RT for head and neck cancer. Briefly: Phase 2 trial: safety and tolerability. The class given is in vivo, human. The conditions noted are these: 0.02 or 0.1 mg/kg on each radiation day for up to 7 weeks. The source says: OM is a painful, debilitating, and costly toxicity of different chemoradiotherapy (CT/RT) regimens used to treat head and neck cancer. This trial is a phase 2, randomized, double-blind, dose-ranging, placebo-controlled three-arm study in patients receiving CT/RT for the treatment of head and neck cancer, to assess the safety and tolerability of γ-D-glutamyl-L-tryptophan (SCV-07) as well as its efficacy in delaying the onset of severe OM as assessed by the WHO Oral Mucositis Scale.
59 eligible patients with recently diagnosed, treatment naïve, pathologically-confirmed, non-metastatic squamous cell carcinoma of the oral cavity, oropharynx, hypopharynx or larynx were enrolled and treated with a concomitant regimen of CT/RT consisting of a continuous course of external beam irradiation (IMRT eligible) with a minimum cumulative dose of 50 Gray (Gy) and cisplatin monotherapy administered using standard weekly or tri-weekly dosing regimens (80-100 mg/m^2 administered on Days 0, 21 and 42) or weekly (30-40 mg/m^2). At least two ‘at risk’ intraoral sites were included in the radiation fields and received a cumulative RT dose of at least 50 Gy. Subjects were equally randomized to receive either placebo or one of two doses of γ-D-glutamyl-L-tryptophan (0.02 or 0.1 mg/kg) on each radiation day for up to 7 weeks.

Series [2] concerns human head and neck cancer (HNC) lines. Briefly: Xenograft studies: CRT anti-tumor response. The series is classed as in vivo.
Series [3] relates to cytokines and gene expression in CRT-treated HNC patients. Kind of series: Cytokine and gene microarray analyses of patient samples. The series is classed as in vivo, human. Here is the method: SCV-07 efficacy, dosing and scheduling parameters were assessed in hamster models of acute, fractionated and concomitant chemoradiation (CRT). […] A multicenter, prospective, blinded, randomized trial evaluated SCV-07's ability to alter OM in CRT-treated HNC patients (n=57). Cytokine and gene microarray analyses were performed for samples obtained before and on the last radiation day.

Setting [4] is: persons who clinically responded to SCV-07.

SMILES strings stand for the structures.

Turning to `N[C@H](CCC(=O)N[C@@H](Cc1c[nH]c2ccccc12)C(=O)O)C(=O)O` [SCV-07, γ-D-glutamyl-L-tryptophan], the safety and tolerability result in series [1] is “safe and well tolerated with no drug-related serious adverse events reported”. The safety and tolerability result in series [1] (listed as γ-D-glutamyl-L-tryptophan) was “safe and well tolerated”. In series [2], the “impact on CRT anti-tumor response” value is listed as “did not impact CRT anti-tumor response”. In addition, in series [3] (SCV-07-treated patients), the ICAM entry is “Increases”, the IL-1alpha entry is reported as “Decreases”, the IL-5 result is “Decreases” and the IL-12 result was “Increases”. Also, in series [3] (SCV-07-treated patients), the IL-15 entry was “Decreases”, the MIF entry is “Increases”, the MIP-1beta entry was “Increases” and the MIP-3 alpha result is given as “Decreases”. Also, in series [3] (SCV-07-treated patients), the Pro-inflammatory cytokine levels result is given as “reduced”, the TNF-alpha entry is given as “Decreases”, the VCAM result is “Increases” and the macrophage-associated cytokines result is recorded as “Elevated”. Besides, in series [3] (SCV-07 vs placebo patients), the “Gene expression (microarray)” value was “Gene expression differences were noted”. Besides, in series [3] (setting [4]), the IL-21 result is listed as “increases”, the MIF result is on record as “increases” and the VEGF entry is given as “decrease”.

The record behind these values is patent US20110245316A1, “PREVENTION OR DELAY OF ONSET OF ORAL MUCOSITIS” (SCICLONE PHARMACEUTICALS, INC., priority 2010, published 2011).
